# Calls of active or inactive are those of the source.
# Experiments:
# [1] = target: Luciferin 4-monooxygenase (Photinus pyralis, UniProt P08659); experiment: firefly luciferase enzyme inhibitors, dose response, biochemical, luminescence (AID 1891)
# [2] = target: Prothrombin (Bos taurus, UniProt P00735); experiment: thrombin inhibition, dose response, biochemical, fluorescence polarization, uHTS hits (AID 602369); type: functional
# [3] = target: 72 kDa type IV collagenase (Homo sapiens, UniProt P08253); experiment: Dose Response validation of uHTS RPN11 inhibitor hits using a MMP-2 Fluorescence assay.; type: functional
# [4] = Luminescence Cell-Based Dose Confirmation HTS to Identify Inhibitors of Platelet Dense Granule Release. [Related pubchem assays: 1663 (Primary HTS), 1678 (Summary of Project)]; type: functional
# [5] = target: 26S proteasome non-ATPase regulatory subunit 14 (Homo sapiens, UniProt O00487); experiment: inhibition of proteasome subunit RPN11 – biochemical, fluorescence polarization, uHTS hits, confirmation (AID 602368); type: functional
# [6] = target: Glucose-6-phosphate 1-dehydrogenase (Homo sapiens, UniProt P11413); experiment: human G6PD enzyme inhibitors, dose response, selectivity assay for P. falciparum G6PD inhibitor project, biochemical, fluorescence (AID 504792); type: functional
# [7] = target: Large T antigen (Simian virus 40, UniProt P03070); type: functional, Betapolyomavirus macacae;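 also: Confirmatory-stage PubChem screen for compounds that inhibit SV40 T antigen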
# [8] = target: Intestinal-type alkaline phosphatase (Homo sapiens, UniProt P09923); experiment: human intestinal alkaline phosphatase activators, dose response, biochemical, luminescence, uHTS hits (AID 463120); type: functional
# [9] = target: T1, Zinc finger protein mex-5 (Caenorhabditis elegans, UniProt Q9XUB2); experiment: MEX-5/TCR-2 RNA interaction inhibitors, dose response, biochemical, C. elegans, fluorescence polarization (AID 1960)
# T1 sequence (Q9XUB2 whole entry): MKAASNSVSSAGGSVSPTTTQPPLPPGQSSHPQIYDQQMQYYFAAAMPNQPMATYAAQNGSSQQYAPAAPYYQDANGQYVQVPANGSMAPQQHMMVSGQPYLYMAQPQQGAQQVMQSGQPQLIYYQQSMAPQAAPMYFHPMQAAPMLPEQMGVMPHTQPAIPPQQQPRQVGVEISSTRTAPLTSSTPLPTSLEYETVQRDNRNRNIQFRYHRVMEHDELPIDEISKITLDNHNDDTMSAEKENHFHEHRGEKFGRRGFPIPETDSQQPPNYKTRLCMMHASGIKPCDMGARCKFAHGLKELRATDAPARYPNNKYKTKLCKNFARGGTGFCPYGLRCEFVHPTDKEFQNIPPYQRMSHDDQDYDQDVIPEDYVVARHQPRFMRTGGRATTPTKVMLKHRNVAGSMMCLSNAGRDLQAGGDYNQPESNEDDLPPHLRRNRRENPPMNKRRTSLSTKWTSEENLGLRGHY
# [10] = target: T2, RNA-binding protein pos-1 (Caenorhabditis elegans, UniProt G5EF15); experiment: inhibitors of POS-1/mex-3 RNA binding, dose response, biochemical, fluorescence polarization (AID 1964);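 also: purified POS-1 fused to maltose binding protein made in E. coli; potency of compounds blocking POS-1 binding to fluorescent RNA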
# T2 sequence (G5EF15 whole entry): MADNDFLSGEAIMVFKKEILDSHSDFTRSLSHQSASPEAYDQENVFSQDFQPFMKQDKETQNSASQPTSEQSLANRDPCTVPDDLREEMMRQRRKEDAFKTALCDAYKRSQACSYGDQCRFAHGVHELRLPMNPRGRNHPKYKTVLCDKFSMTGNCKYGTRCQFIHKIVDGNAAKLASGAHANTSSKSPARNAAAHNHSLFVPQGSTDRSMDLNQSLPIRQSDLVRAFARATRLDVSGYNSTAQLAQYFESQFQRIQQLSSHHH
# [11] = target: T3, Apoptotic protease-activating factor 1 (Homo sapiens, UniProt O14727); type: functional
# T3 sequence (O14727 whole entry): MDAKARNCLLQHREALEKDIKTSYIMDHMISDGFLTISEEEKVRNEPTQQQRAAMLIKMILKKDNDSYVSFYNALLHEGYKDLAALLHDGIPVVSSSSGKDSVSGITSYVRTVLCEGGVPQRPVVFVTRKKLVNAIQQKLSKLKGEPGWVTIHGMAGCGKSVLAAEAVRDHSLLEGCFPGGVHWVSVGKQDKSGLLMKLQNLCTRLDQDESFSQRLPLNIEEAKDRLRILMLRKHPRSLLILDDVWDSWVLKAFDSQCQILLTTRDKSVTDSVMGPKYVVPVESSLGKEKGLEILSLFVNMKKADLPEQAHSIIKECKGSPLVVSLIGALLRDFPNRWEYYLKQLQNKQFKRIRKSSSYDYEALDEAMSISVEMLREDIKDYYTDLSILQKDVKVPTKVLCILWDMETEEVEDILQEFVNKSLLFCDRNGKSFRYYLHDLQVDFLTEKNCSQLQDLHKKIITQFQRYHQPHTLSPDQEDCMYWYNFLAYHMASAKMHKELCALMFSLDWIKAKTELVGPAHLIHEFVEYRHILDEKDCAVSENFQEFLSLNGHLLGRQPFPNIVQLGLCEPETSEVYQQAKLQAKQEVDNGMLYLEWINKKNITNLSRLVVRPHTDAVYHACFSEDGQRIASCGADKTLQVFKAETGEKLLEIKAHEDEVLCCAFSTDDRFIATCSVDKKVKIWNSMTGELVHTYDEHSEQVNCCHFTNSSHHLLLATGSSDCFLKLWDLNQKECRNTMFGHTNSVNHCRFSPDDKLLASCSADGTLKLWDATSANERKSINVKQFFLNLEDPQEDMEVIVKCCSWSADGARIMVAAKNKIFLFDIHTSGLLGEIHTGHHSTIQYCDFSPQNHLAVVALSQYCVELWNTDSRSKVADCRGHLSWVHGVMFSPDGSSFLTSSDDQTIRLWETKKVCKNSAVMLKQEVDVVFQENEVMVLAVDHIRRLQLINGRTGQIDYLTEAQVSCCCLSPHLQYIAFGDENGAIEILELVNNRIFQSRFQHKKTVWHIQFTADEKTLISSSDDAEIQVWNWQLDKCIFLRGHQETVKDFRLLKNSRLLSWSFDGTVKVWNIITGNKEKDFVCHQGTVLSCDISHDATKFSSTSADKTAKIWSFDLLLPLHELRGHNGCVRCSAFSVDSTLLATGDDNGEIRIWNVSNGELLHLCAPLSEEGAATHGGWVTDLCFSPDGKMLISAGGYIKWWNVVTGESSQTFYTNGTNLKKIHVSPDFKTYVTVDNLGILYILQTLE
# [12] = target: DNA (cytosine-5)-methyltransferase 1 (Homo sapiens, UniProt P26358); experiment: DNMT1 methyltransferase inhibitors, confirmation, biochemical, fluorescent molecular beacon (AID 602386); type: functional
# [13] = target: Genome polyprotein (dengue virus type 2, UniProt P29990); experiment: Dengue-2 NS5 methyltransferase inhibitors, primary screen, biochemical, confirmation dose response (AID 588689); type: functional
# [14] = tested on: Streptococcus sp. 'group A'; experiment: growth inhibition of control SK(-) GAS strain, dose response, counter-screen for streptokinase expression inhibitor project, luminescence, kanamycin, BacTiterGlo, confirmation (AID 1900); type: functional, organism-based
# [15] = target: T4, Streptokinase A (Streptococcus pyogenes serotype M1, UniProt P10520); experiment: S. pyogenes streptokinase expression inhibitors, potency, dose response, plasminogen activation absorbance, OD405 (AID 1914); type: functional, Streptococcus pyogenes M1 GAS;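 also: secreted streptokinase activity via plasminogen activation per viability signal from cell pellet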
# T4 sequence (P10520 whole entry): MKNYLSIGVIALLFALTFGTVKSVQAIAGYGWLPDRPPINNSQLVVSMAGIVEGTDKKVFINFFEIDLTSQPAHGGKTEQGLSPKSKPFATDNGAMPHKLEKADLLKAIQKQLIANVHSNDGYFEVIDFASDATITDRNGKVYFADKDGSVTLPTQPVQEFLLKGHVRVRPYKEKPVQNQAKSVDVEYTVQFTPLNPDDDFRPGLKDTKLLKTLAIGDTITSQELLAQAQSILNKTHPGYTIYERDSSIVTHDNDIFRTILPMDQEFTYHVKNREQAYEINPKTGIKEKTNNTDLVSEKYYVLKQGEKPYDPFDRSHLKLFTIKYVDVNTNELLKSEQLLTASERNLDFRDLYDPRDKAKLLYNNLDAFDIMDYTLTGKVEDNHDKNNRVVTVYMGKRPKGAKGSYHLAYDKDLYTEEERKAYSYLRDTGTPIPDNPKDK
# [16] = tested on: Streptococcus; experiment: Group A Streptococcus viability loss, dose response, counter-screen for streptokinase expression inhibitor project, luminescence, BacTiterGlo (AID 1915); type: functional, organism-based;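 also: potency for reduction of bacterial viability or growth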
# [17] = target: Steroidogenic factor 1 (Homo sapiens, UniProt Q13285); experiment: Counterscreen for inverse agonists of the liver receptor homolog-1 (LRH-1; NR5A2): Luminescence-based cell-based high throughput dose response assay to identify inverse agonists of the Steroidogenic Factor 1 Nuclear Receptor (SF1; NR5A1).; type: functional
# [18] = target: Nuclear receptor subfamily 5 group A member 2 (Homo sapiens, UniProt O00482); type: functional, cell-based;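 also: HEK293T cells transfected with LRH-1 and a StAR promoter luciferase reporter; potency for inhibitors that lower LRH-1 driven reporter light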
# [19] = StAR promoter reporter inhibition counter-screen, dose response, counter-screen for LRH-1 inverse agonist project, cell-based, luminescence, luciferase reporter (AID 651969); type: functional
# [20] = target: T5, Carboxy-terminal domain RNA polymerase II polypeptide A small phosphatase 1 (Homo sapiens, UniProt Q9GZU7); experiment: inhibitors of CTDSP1, concentration-response testing, biochemical assay, absorbance-based, actives from ultra-high-throughput screening (AID 540297); type: functional
# T5 sequence (Q9GZU7 whole entry): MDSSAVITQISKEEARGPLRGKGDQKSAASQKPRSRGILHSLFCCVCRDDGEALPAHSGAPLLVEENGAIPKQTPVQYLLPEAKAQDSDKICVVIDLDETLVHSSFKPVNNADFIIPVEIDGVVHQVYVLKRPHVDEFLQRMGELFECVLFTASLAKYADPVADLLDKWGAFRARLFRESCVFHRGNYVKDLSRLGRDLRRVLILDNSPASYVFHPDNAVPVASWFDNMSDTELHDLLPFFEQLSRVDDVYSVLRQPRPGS
# [21] = target: Dual specificity protein phosphatase 3 (Homo sapiens, UniProt P51452); experiment: VHR phosphatase inhibition, dose response, selectivity assay for STEP inhibitor project, biochemical (AID 602374); type: functional; settings: read-out: IC50_Mean
# [22] = target: T6, Tyrosine-protein phosphatase non-receptor type 5 (Homo sapiens, UniProt P54829); experiment: STEP phosphatase inhibitors, confirmation, biochemical, fluorescence intensity, uHTS hits (AID 602372); type: functional; settings: read-out: IC50_Mean
# T6 sequence (P54829 whole entry): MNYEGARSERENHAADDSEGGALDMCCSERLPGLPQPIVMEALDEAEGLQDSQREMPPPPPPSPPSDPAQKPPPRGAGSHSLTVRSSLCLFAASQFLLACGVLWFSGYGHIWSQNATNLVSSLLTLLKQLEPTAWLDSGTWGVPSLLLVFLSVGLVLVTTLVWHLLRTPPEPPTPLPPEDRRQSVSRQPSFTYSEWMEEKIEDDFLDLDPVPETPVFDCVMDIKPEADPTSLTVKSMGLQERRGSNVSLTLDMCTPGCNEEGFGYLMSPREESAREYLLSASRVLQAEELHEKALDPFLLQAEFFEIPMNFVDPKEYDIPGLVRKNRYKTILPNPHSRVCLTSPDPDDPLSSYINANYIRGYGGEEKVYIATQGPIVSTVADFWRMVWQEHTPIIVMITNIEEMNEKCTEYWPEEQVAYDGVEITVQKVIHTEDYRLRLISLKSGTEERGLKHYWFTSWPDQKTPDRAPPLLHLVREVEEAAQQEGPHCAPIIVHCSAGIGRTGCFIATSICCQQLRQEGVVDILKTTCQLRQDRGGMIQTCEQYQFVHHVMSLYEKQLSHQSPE
# [23] = target: T7, Tyrosine-protein phosphatase non-receptor type 11 (Homo sapiens, UniProt Q06124); experiment: SHP2 phosphatase inhibition, dose response, selectivity assay for STEP inhibitor project, biochemical (AID 602367); type: functional; settings: read-out: IC50_Mean
# T7 sequence (Q06124 whole entry): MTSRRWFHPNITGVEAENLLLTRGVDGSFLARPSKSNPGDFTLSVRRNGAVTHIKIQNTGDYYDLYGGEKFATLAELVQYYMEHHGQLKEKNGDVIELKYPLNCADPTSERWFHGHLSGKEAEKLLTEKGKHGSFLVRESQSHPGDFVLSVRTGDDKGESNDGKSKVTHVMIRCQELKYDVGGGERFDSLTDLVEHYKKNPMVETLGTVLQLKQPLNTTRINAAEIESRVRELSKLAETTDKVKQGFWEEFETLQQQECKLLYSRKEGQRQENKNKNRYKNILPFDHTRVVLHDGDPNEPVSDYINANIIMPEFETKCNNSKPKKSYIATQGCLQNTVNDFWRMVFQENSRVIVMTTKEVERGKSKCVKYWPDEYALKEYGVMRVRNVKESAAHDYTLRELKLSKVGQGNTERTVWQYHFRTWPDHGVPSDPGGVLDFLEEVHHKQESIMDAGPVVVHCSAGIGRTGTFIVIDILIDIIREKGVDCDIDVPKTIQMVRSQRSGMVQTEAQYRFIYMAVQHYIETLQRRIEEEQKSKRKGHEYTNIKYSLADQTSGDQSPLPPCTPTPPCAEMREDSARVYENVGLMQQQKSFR
# Chain of 72 kDa type IV collagenase (P08253 whole entry): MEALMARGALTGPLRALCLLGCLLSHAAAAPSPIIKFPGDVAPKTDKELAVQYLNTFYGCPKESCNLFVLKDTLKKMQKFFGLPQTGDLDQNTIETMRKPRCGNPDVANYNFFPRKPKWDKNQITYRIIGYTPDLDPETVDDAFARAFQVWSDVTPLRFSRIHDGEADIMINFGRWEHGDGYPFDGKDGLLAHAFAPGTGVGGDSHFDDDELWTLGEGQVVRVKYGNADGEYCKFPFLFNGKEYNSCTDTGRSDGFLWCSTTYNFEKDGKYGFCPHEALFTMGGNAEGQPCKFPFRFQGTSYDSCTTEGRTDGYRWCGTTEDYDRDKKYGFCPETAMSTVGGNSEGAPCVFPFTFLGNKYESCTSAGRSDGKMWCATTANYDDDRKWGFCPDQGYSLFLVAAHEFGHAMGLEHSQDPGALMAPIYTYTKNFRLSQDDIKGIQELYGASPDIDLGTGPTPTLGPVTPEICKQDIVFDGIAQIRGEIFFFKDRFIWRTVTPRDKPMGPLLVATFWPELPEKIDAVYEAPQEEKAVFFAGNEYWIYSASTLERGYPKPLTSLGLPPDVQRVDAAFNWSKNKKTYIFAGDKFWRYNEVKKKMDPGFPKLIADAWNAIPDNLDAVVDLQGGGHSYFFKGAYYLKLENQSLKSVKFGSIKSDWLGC
# Chain of 26S proteasome non-ATPase regulatory subunit 14 (O00487 whole entry): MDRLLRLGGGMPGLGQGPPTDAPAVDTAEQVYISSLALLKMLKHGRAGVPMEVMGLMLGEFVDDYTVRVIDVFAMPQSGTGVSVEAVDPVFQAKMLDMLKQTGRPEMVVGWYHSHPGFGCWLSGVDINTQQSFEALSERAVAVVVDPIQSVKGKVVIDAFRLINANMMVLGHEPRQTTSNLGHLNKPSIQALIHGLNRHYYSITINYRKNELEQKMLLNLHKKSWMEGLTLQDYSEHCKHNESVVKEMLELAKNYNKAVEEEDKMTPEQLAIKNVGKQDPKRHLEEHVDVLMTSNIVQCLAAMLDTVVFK
# Chain of DNA (cytosine-5)-methyltransferase 1 (P26358 whole entry): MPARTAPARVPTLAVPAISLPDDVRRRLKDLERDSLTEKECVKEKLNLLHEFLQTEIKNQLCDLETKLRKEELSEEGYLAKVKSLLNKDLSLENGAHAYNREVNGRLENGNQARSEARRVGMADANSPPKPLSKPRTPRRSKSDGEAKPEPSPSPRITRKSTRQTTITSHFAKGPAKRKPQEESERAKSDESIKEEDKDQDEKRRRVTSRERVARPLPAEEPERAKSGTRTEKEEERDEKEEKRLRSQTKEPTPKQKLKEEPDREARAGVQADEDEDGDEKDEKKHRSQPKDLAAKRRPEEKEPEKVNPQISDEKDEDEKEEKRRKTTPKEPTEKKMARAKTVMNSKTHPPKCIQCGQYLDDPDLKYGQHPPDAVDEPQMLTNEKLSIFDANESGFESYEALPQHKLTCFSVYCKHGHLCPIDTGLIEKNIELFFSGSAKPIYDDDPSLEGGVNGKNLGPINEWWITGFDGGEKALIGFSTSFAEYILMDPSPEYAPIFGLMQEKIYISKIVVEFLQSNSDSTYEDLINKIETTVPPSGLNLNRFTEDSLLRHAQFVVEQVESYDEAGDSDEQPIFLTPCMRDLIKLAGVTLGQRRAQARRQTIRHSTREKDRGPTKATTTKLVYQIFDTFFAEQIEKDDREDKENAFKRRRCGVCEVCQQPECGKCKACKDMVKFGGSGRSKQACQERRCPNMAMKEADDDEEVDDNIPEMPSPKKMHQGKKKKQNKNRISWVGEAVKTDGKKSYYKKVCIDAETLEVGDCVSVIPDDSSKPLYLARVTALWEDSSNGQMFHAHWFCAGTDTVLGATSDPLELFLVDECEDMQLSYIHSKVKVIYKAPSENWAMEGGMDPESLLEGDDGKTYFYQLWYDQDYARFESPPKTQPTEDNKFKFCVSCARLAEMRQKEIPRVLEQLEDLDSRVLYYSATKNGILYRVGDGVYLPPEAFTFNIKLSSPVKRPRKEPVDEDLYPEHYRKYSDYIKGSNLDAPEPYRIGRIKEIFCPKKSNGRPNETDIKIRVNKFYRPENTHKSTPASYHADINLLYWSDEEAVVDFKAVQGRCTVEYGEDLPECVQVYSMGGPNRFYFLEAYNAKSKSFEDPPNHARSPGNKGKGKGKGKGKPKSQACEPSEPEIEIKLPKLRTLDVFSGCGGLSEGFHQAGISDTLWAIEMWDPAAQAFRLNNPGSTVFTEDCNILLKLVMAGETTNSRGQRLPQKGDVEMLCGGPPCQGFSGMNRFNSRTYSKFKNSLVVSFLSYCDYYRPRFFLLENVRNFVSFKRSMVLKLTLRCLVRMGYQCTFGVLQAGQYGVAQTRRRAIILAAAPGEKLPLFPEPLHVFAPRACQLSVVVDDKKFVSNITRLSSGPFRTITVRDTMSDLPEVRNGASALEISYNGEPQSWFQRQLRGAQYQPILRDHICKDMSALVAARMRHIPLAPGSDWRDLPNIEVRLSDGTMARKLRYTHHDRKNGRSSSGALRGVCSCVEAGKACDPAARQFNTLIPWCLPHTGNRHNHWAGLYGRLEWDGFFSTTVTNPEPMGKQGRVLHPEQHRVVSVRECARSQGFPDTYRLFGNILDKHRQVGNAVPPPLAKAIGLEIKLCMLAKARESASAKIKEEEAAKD
# Chain of Large T antigen (P03070 whole entry): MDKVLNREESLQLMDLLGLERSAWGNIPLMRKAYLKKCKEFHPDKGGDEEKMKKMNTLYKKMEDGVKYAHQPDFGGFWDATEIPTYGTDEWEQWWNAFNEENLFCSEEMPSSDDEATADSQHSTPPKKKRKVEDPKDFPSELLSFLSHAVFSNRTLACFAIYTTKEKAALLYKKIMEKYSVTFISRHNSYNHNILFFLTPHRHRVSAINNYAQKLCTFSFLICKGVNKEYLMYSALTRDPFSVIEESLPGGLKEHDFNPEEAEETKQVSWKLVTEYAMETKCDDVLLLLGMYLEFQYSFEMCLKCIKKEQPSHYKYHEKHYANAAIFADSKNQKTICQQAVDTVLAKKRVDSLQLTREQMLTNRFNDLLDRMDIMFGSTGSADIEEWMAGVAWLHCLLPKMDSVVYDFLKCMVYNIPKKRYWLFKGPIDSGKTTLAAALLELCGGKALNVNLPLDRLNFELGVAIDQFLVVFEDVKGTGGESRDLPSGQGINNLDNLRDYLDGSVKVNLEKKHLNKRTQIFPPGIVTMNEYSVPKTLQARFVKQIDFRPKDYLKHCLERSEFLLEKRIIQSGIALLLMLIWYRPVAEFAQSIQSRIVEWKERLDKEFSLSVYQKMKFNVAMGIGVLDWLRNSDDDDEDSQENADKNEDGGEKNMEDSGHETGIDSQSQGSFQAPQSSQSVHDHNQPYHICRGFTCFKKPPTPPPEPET
# Chain of Dual specificity protein phosphatase 3 (P51452 whole entry): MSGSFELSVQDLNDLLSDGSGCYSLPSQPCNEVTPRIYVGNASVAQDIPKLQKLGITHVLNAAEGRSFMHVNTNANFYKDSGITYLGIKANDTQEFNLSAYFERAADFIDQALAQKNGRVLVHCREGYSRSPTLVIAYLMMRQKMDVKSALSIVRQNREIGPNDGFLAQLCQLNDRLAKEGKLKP
# Chain of Glucose-6-phosphate 1-dehydrogenase (P11413 whole entry): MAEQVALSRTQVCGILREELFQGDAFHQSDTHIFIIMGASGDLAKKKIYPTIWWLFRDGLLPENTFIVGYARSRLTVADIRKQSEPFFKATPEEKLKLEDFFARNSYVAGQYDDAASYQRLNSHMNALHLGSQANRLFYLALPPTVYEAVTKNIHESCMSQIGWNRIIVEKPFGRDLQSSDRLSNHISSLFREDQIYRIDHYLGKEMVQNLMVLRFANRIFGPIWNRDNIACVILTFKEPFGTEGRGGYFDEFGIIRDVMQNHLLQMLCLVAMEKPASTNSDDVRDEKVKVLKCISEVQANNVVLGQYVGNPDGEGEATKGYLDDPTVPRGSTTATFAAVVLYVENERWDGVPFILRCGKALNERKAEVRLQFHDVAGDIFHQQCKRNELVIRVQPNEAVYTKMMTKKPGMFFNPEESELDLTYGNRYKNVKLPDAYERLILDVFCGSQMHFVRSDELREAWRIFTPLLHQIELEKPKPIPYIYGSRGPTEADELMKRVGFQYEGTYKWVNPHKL
# Chain of Nuclear receptor subfamily 5 group A member 2 (O00482 whole entry): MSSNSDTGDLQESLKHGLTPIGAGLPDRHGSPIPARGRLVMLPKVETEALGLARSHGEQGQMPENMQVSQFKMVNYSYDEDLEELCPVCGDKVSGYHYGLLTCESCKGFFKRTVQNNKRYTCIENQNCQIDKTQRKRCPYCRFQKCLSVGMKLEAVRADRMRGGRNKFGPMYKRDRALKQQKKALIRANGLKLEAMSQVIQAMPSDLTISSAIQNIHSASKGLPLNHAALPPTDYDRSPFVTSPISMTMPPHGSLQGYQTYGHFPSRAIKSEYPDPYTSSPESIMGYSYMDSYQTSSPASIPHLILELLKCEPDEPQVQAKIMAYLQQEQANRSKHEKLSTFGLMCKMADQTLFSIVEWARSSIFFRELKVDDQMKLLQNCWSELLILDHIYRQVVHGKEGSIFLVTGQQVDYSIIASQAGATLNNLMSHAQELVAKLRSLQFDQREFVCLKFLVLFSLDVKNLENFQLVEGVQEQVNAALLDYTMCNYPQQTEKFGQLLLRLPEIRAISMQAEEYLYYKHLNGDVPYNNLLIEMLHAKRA
# Chain of Steroidogenic factor 1 (Q13285 whole entry): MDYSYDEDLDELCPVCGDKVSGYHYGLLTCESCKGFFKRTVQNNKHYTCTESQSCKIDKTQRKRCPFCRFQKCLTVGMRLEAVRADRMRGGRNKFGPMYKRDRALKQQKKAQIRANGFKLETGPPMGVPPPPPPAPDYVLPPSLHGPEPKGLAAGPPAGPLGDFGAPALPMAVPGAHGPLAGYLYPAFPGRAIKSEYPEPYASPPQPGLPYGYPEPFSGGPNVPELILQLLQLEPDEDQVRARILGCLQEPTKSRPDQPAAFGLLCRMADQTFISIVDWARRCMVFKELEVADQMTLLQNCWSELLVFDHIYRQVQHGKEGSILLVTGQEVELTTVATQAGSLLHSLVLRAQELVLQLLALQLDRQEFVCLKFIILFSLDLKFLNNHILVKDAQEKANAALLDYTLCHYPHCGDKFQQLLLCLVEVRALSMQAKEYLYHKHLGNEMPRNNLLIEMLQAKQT
smiles,measurement,setting,value
COC(=O)c1c(-c2cccnc2)csc1NC(=O)c1ccc2c(c1)OCO2,EC50,[1],0.77 µM (active)
same,IC50,[2],96.1 µM (active)
same,IC50,[3],> 100 µM (inactive)
same,EC50,[4],8.11 µM (active)
same,IC50,[5],37.5 µM (active)
COc1cc(/C=C2\SC(c3ccc(C)cc3)=NC2=O)cc(OC)c1O,IC50,[2],1.37 µM (active)
same,IC50,[6],63.1 µM (inactive)
same,IC50,[3],42.1 µM (active)
same,IC50,[7],16.5 µM (active)
same,IC50,[5],2.18 µM (active)
Cc1ccc(-n2ncc3c(NNC(=O)c4ccco4)ncnc32)cc1C,EC50,[8],6.81 µM (active)
same,EC50,[9],142 µM (active)
same,EC50,[10],> 300 µM (not active)
Cc1ccc(OCC(=O)N(Cc2nnc(-c3ccccc3Cl)o2)C2CC2)cc1C,IC50,[11],31.9 µM (active)
COc1ccccc1-c1cc(C(=O)Nc2cc(C)nn2-c2ccccc2)no1,IC50,[2],> 100 µM (inactive)
same,IC50,[3],> 100 µM (inactive)
same,IC50,[5],36 µM (active)
O=C(O)CN1C(=O)/C(=C\c2cc(Br)ccc2OCc2ccccc2Cl)SC1=S,IC50,[12],4.7 µM (active)
same,IC50,[13],24.3 µM (active)
same,EC50,[14],1.97 µM (active)
same,EC50,[15],> 150 µM (not active)
same,EC50,[16],5.9 µM (active)
CCOc1ccc(NC(=O)CSc2nncc(=O)n2N)cc1,IC50,[17],12 µM (inactive)
same,IC50,[18],35.9 µM (inactive)
same,IC50,[19],35.9 µM (inactive)
O=C(N/N=C/c1ccc(Br)cc1)c1ccc(Br)o1,IC50,[20],6.85 µM (active)
same,IC50,[21],8.79 µM (active)
same,IC50,[22],17.1 µM (active)
same,IC50,[23],9.11 µM (active)
O=C(CNC(=O)c1ccc([N+](=O)[O-])cc1)N/N=C\c1ccc(OC(=O)c2ccccc2)cc1,IC50,[12],> 99 µM (inactive)

# Source: ChEMBL document CHEMBL1201862, “PubChem BioAssay data set” (2004)
